Experimental data: ChEMBL document CHEMBL1201862, “PubChem BioAssay data set” (2004)
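In this assay, cells in 96-well plates receive the compound at five concentrations for 48 hours. Endpoints are linearly interpolated between the surrounding concentrations. At the GI50, growth is halved.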 Activity calls are given as the source filed them. Rule as the data show it: active = GI50 up to about 1.1 µM and inactive = higher.

Key:
Assay in all cases: NCI anticancer screen, dose series, 48 h
BT-549 = test system: BT-549
COLO 205 = test system: COLO 205
HCC 2998 = test system: HCC 2998
HCT-15 = test system: HCT-15
HOP-62 = test system: HOP-62
IGROV-1 = test system: IGROV-1
K562 = test system: K562
MDA-MB-231 = test system: MDA-MB-231
NCI/ADR-RES = test system: NCI/ADR-RES
OVCAR-4 = test system: OVCAR-4
OVCAR-5 = test system: OVCAR-5
PC-3 = test system: PC-3
RPMI-8226 = test system: RPMI-8226
SF-268 = test system: SF-268
SK-MEL-2 = test system: SK-MEL-2
SK-MEL-5 = test system: SK-MEL-5
SW-620 = test system: SW-620
TK-10 = test system: TK-10
MOLT-4 = test system: MOLT-4
T47D = test system: T47D

CN(C)c1ccc(/C=N/NC(=O)c2cnc3ccccc3c2)cc1
GI50 (BT-549): 94 µM (inactive)
GI50 (COLO 205): > 100 µM (inactive)
GI50 (HCC 2998): 42.1 µM (inactive)
GI50 (HCT-15): > 100 µM
GI50 (HOP-62): 35.5 µM (inactive)
GI50 (IGROV-1): 51.1 µM (inactive)
GI50 (K562): > 100 µM (inactive)
GI50 (MDA-MB-231): 37.8 µM (inactive)
GI50 (NCI/ADR-RES): > 100 µM (inactive)
GI50 (OVCAR-4): > 100 µM (inactive)
GI50 (OVCAR-5): > 100 µM (inactive)
GI50 (PC-3): > 100 µM (inactive)
GI50 (RPMI-8226): > 100 µM (inactive)
GI50 (SF-268): 18 µM (inactive)
GI50 (SK-MEL-2): > 100 µM (inactive)
GI50 (SK-MEL-5): > 100 µM (inactive)
GI50 (SW-620): > 100 µM (inactive)
GI50 (TK-10): 26.3 µM (inactive)

CC(=O)O[C@H]1C(=O)[C@]2(C)[C@@H](OC(=O)OCC(O)CO)C[C@H]3OC[C@@]3(OC(C)=O)[C@H]2[C@H](OC(=O)c2ccccc2)[C@]2(O)C[C@H](OC(=O)[C@H](O)[C@@H](NC(=O)c3ccccc3)c3ccccc3)C(C)=C1C2(C)C (some centres not stated) [PACLITAXEL CERIBATE]
GI50 (BT-549): < 0.0147 µM (active)
GI50 (COLO 205): < 0.01 µM (active)
GI50 (HCC 2998): < 0.01 µM (active)
GI50 (HCT-15): 0.143 µM
GI50 (HOP-62): < 0.01 µM (active)
GI50 (IGROV-1): < 0.01 µM (active)
GI50 (K562): < 0.01 µM (active)
GI50 (MDA-MB-231): < 0.01 µM (active)
GI50 (MOLT-4): < 0.01 µM (active)
GI50 (NCI/ADR-RES): 1.1 µM (active)
GI50 (OVCAR-4): 17 µM (inactive)
GI50 (OVCAR-5): < 0.01 µM (active)
GI50 (PC-3): < 0.01 µM (active)
GI50 (RPMI-8226): < 0.01 µM (active)
GI50 (SF-268): < 0.01 µM (active)
GI50 (SK-MEL-2): < 0.01 µM (active)
GI50 (SK-MEL-5): < 0.01 µM (active)
GI50 (SW-620): < 0.01 µM (active)
GI50 (TK-10): 0.0875 µM (active)

COc1ccc2[nH]cc(CCNC(=O)[C@H](Cc3ccc(O)cc3)NC(=O)[C@@H](NCC(F)(F)F)C(C)C)c2c1
GI50 (BT-549): 67.5 µM (inactive)
GI50 (COLO 205): 41.9 µM (inactive)
GI50 (HCT-15): > 100 µM
GI50 (HOP-62): > 100 µM (inactive)
GI50 (IGROV-1): 97.7 µM (inactive)
GI50 (K562): 71.6 µM (inactive)
GI50 (MDA-MB-231): > 100 µM (inactive)
GI50 (MOLT-4): 68.5 µM (inactive)
GI50 (NCI/ADR-RES): > 100 µM (inactive)
GI50 (OVCAR-4): 40 µM (inactive)
GI50 (OVCAR-5): > 100 µM (inactive)
GI50 (PC-3): > 100 µM (inactive)
GI50 (RPMI-8226): 34.4 µM (inactive)
GI50 (SK-MEL-2): 58.2 µM (inactive)
GI50 (SW-620): > 100 µM (inactive)
GI50 (TK-10): > 100 µM (inactive)

OCC1C2CCC3(OCCO3)C12 (configuration not stated)
GI50 (BT-549): 20.6 µM (inactive)
GI50 (COLO 205): > 100 µM (inactive)
GI50 (HCC 2998): > 100 µM (inactive)
GI50 (HCT-15): > 100 µM
GI50 (HOP-62): > 100 µM (inactive)
GI50 (IGROV-1): > 100 µM (inactive)
GI50 (K562): > 100 µM (inactive)
GI50 (MDA-MB-231): > 100 µM (inactive)
GI50 (MOLT-4): > 100 µM (inactive)
GI50 (NCI/ADR-RES): > 100 µM (inactive)
GI50 (OVCAR-4): > 100 µM (inactive)
GI50 (OVCAR-5): > 100 µM (inactive)
GI50 (PC-3): > 100 µM (inactive)
GI50 (RPMI-8226): > 100 µM (inactive)
GI50 (SF-268): > 100 µM (inactive)
GI50 (SK-MEL-2): > 100 µM (inactive)
GI50 (SK-MEL-5): > 100 µM (inactive)
GI50 (SW-620): > 100 µM (inactive)
GI50 (TK-10): > 100 µM (inactive)

CC(C)(C)CC(C)(C)NC(=S)NO
GI50 (COLO 205): > 100 µM (inactive)
GI50 (HCC 2998): > 100 µM (inactive)
GI50 (HCT-15): > 100 µM
GI50 (HOP-62): > 100 µM (inactive)
GI50 (IGROV-1): > 100 µM (inactive)
GI50 (K562): > 100 µM (inactive)
GI50 (MDA-MB-231): > 100 µM (inactive)
GI50 (MOLT-4): > 100 µM (inactive)
GI50 (NCI/ADR-RES): > 100 µM (inactive)
GI50 (OVCAR-4): > 100 µM (inactive)
GI50 (OVCAR-5): > 100 µM (inactive)
GI50 (PC-3): > 100 µM (inactive)
GI50 (RPMI-8226): > 100 µM (inactive)
GI50 (SF-268): > 100 µM (inactive)
GI50 (SK-MEL-2): > 100 µM (inactive)
GI50 (SK-MEL-5): > 100 µM (inactive)
GI50 (SW-620): > 100 µM (inactive)
GI50 (T47D): > 100 µM (inactive)
GI50 (TK-10): > 100 µM (inactive)

CN(C)c1ccc(/C(Br)=C2\OC(=O)c3ccccc32)cc1
GI50 (COLO 205): 56.1 µM (inactive)
GI50 (HCC 2998): > 100 µM (inactive)
GI50 (HCT-15): 87.3 µM
GI50 (HOP-62): > 100 µM (inactive)
GI50 (IGROV-1): > 100 µM (inactive)
GI50 (K562): 59.6 µM (inactive)
GI50 (MDA-MB-231): > 100 µM (inactive)
GI50 (MOLT-4): 37.2 µM (inactive)
GI50 (NCI/ADR-RES): 31.8 µM (inactive)
GI50 (OVCAR-4): > 100 µM (inactive)
GI50 (OVCAR-5): 2.95 µM (inactive)
GI50 (PC-3): > 100 µM (inactive)
GI50 (RPMI-8226): 24.3 µM (inactive)
GI50 (SF-268): > 100 µM (inactive)
GI50 (SK-MEL-2): 92.9 µM (inactive)
GI50 (SK-MEL-5): 77.6 µM (inactive)
GI50 (SW-620): 93.5 µM (inactive)
GI50 (T47D): 11.3 µM (inactive)
GI50 (TK-10): > 100 µM (inactive)

CC1OC2(CC(OCc3ccccc3)C1OCc1ccccc1)OCCO2 (configuration not stated)
GI50 (BT-549): 59 µM (inactive)
GI50 (COLO 205): 62.1 µM (inactive)
GI50 (HCC 2998): 71.8 µM (inactive)
GI50 (HCT-15): 28.2 µM
GI50 (HOP-62): > 100 µM (inactive)
GI50 (IGROV-1): > 100 µM (inactive)
GI50 (K562): 77.8 µM (inactive)
GI50 (MDA-MB-231): 37 µM (inactive)
GI50 (MOLT-4): 27.3 µM (inactive)
GI50 (NCI/ADR-RES): 39.1 µM (inactive)
GI50 (OVCAR-4): 76.7 µM (inactive)
GI50 (OVCAR-5): 51.3 µM (inactive)
GI50 (PC-3): 59.8 µM (inactive)
GI50 (RPMI-8226): 35.2 µM (inactive)
GI50 (SF-268): 60.1 µM (inactive)
GI50 (SK-MEL-2): 78.5 µM (inactive)
GI50 (SK-MEL-5): 33 µM (inactive)
GI50 (SW-620): 70 µM (inactive)
GI50 (TK-10): > 100 µM (inactive)

NC(CCC(=O)NC(CSC(=O)N(O)c1ccc(Cl)cc1)C(=O)NCC(=O)O)C(=O)O (configuration not stated)
GI50 (BT-549): > 0.5 µM (active)
GI50 (COLO 205): > 0.5 µM (active)
GI50 (HCC 2998): > 0.5 µM (active)
GI50 (HCT-15): > 0.5 µM
GI50 (HOP-62): > 0.5 µM (active)
GI50 (IGROV-1): > 0.5 µM (active)
GI50 (K562): > 0.5 µM (active)
GI50 (MDA-MB-231): > 0.5 µM (active)
GI50 (MOLT-4): > 0.5 µM (active)
GI50 (NCI/ADR-RES): > 0.5 µM (active)
GI50 (OVCAR-4): > 0.5 µM (active)
GI50 (OVCAR-5): > 0.5 µM (active)
GI50 (PC-3): > 0.5 µM (active)
GI50 (RPMI-8226): > 0.5 µM (active)
GI50 (SF-268): > 0.5 µM (active)
GI50 (SK-MEL-2): > 0.5 µM (active)
GI50 (SK-MEL-5): > 0.5 µM (active)
GI50 (SW-620): > 0.5 µM (active)

COc1ccc(OC)c([N+](=O)[O-])c1-c1nc2sc(C)cn2c1/C=N/N=C(N)N
GI50 (BT-549): 15.2 µM (inactive)
GI50 (HCC 2998): 20.6 µM (inactive)
GI50 (HCT-15): > 100 µM
GI50 (HOP-62): 43.5 µM (inactive)
GI50 (IGROV-1): 14.5 µM (inactive)
GI50 (K562): 2.49 µM (inactive)
GI50 (MDA-MB-231): 23.7 µM (inactive)
GI50 (MOLT-4): < 0.01 µM (active)
GI50 (NCI/ADR-RES): > 100 µM (inactive)
GI50 (OVCAR-4): 22.3 µM (inactive)
GI50 (OVCAR-5): 51.4 µM (inactive)
GI50 (PC-3): 23.3 µM (inactive)
GI50 (RPMI-8226): 37.8 µM (inactive)
GI50 (SF-268): 27.6 µM (inactive)
GI50 (SK-MEL-2): 21.5 µM (inactive)
GI50 (SK-MEL-5): 18.7 µM (inactive)
GI50 (SW-620): 29.9 µM (inactive)
GI50 (TK-10): 20.6 µM (inactive)

CCCCCCCCCCCCC(=O)OC(c1cnco1)c1nc(C(O)CC(O)C(O)C(C)O)co1 (configuration not stated)
GI50 (COLO 205): 0.273 µM (active)
GI50 (HCC 2998): 1.31 µM (inactive)
GI50 (HCT-15): 9.44 µM
GI50 (HOP-62): 2.65 µM (inactive)
GI50 (IGROV-1): 0.339 µM (active)
GI50 (K562): 0.21 µM (active)
GI50 (MDA-MB-231): 1.89 µM (inactive)
GI50 (MOLT-4): 0.144 µM (active)
GI50 (NCI/ADR-RES): > 10 µM (inactive)
GI50 (OVCAR-4): 1.3 µM (inactive)
GI50 (OVCAR-5): 11.6 µM (inactive)
GI50 (PC-3): 2.22 µM (inactive)
GI50 (RPMI-8226): 0.273 µM (active)
GI50 (SF-268): 0.333 µM (active)
GI50 (SK-MEL-2): 0.63 µM (active)
GI50 (SK-MEL-5): 0.719 µM (active)
GI50 (SW-620): 0.114 µM (active)
GI50 (T47D): 4.71 µM (inactive)
GI50 (TK-10): 5.62 µM (inactive)

OCCN(C1=NCCN1)/[N+](=C/c1ccc(Cl)cc1)[CH-]c1ccc(Cl)cc1
GI50 (BT-549): > 100 µM (inactive)
GI50 (COLO 205): 62.4 µM (inactive)
GI50 (HCC 2998): 29.4 µM (inactive)
GI50 (HCT-15): 61.8 µM
GI50 (HOP-62): > 100 µM (inactive)
GI50 (IGROV-1): > 100 µM (inactive)
GI50 (K562): 41.7 µM (inactive)
GI50 (MDA-MB-231): > 100 µM (inactive)
GI50 (MOLT-4): 26.5 µM (inactive)
GI50 (NCI/ADR-RES): > 100 µM (inactive)
GI50 (OVCAR-4): > 100 µM (inactive)
GI50 (OVCAR-5): > 100 µM (inactive)
GI50 (PC-3): 62.5 µM (inactive)
GI50 (SF-268): > 100 µM (inactive)
GI50 (SK-MEL-2): 27.1 µM (inactive)
GI50 (SK-MEL-5): 23.8 µM (inactive)
GI50 (SW-620): > 100 µM (inactive)
GI50 (TK-10): > 100 µM (inactive)
